Reference: patent US4792563A, “Insecticidal ethers” (Imperial Chemical Industries PLC, priority 1986, dated 1988)

What was measured:
Type in all cases: in vivo
[1] = tested on: Tetranychus urticae (spider mites - adult); test: insecticidal mortality test, contact, French bean leaf; conditions: 72 h, 3 days, read-out: grading of mortality, TU
Procedure: (§1) The activity of the Product was determined using variety of insect pests. The Product was used in the form of liquid preparations containing 500 , 100 or 10 parts per million (ppm) by weight of the Product. The preparations were made by dissolving the Product in acetone and diluting the solutions with water containing b 0.01% by weight of a wetting agent sold under the trade name "LISSAPOL" NX until the liquid preparations contained the required concentration of the Product. "Lissapol" is a Registered Trade Mark.
(§2) The test procedure adopted with regard to each pest was basically the same and comprised supporting a number of the pests on a medium which was usually a host plant or a foodstuff on which the pests feed, and treating either or both the pests and the medium with the preparations. The mortality of the pests was then assessed at peroods usually varying from one to three days after the treatment.
(§3) The results of the tests are given in Table IV for each of the Products, at the rate in parts per million given in the second column, as a grading of mortality designated as A, B or C wherein A indicates 80-100% mortality or knockdown, B indicates 50-79% mortality or knockdown and C indicates less than 50% mortality or knockdown.
(§4) In Table IV the pest organism used is designated by a letter code and the pest species, the support medium or food, and the type and duration of test is given in Table III.

[2] = tested on: Myzus persicae (aphids); test: insecticidal mortality test, contact, Chinese cabbage leaf; conditions: 72 h, 3 days, read-out: grading of mortality, MP
Procedure: as §1, §2, §3, §4

[3] = tested on: Heliothis virescens (tobacco budworm - larvae); test: whole plant or invertebrate; conditions: in Gossypium hirsutum, 72 h, read-out: grading of mortality, HV
Procedure: as §1, §2, §3, §4
(tobacco budworm - larvae)

[4] = tested on: Diabrotica balteata (rootworm larvae); test: insecticidal mortality test, residual, filter paper/maize seed; conditions: 72 h, 3 days, read-out: grading of mortality, DB
Procedure: as §1, §2, §3, §4

[5] = tested on: Blattella germanica (cockroach nymphs); test: insecticidal mortality test, residual, plastic pot; conditions: 72 h, 3 days, read-out: grading of mortality, BG
Procedure: as §1, §2, §3, §4

[6] = tested on: Musca domestica (houseflies - adults); test: insecticidal mortality test, contact, cotton wool/sugar; conditions: 24 h, 1 day, read-out: grading of mortality, MD
Procedure: as §1, §2, §3, §4

[7] = tested on: Musca domestica (houseflies - adults); test: knockdown test, cotton wool/sugar; conditions: 4 hours, read-out: grading of knockdown, MD/KD
Procedure: as §1, §2
In the case of the species Musca domestica (housefly), additional tests to determine the knockdown effect of the compounds were performed.
as §3, §4

[8] = tested on: Spodoptera exigua (lesser army worm - larvae); test: insecticidal mortality test, residual, cotton leaf; conditions: 72 h, 3 days, read-out: grading of mortality, SP
Procedure: as §1, §2, §3, §4
(lesser army worm - larvae)

[9] = tested on: Nephotettix cincticeps (green leaf hopper - nymphs); test: insecticidal mortality test, contact, rice plant; conditions: 72 h, 3 days, read-out: grading of mortality, NC
Procedure: as §1, §2, §3, §4
NC Nephotettix cincticeps

[10] = tested on: Niloparvata lugens (brown plant hopper - nymphs); test: insecticidal mortality test, contact, rice plant; conditions: 72 h, 3 days, read-out: grading of mortality, NL
Procedure: as §1, §2
as §3, with “knockdown. […]” for “knockdown.”

Compound | mortality at 500 ppm [1] [%] | mortality at 500 ppm [2] [%] | mortality at 500 ppm [3] [%] | mortality at 500 ppm [4] [%] | mortality at 500 ppm [5] [%] | mortality at 500 ppm [6] [%] | pest or weed control at 500 ppm [7] [%] | mortality at 500 ppm [8] [%] | mortality at 500 ppm [9] [%] | mortality at 500 ppm [10] [%]
CC(C)(COCc1ccc(F)c(Cc2ccccc2)c1)C(F)F [Compound 4, 1,1-Difluoro-2,2-dimethyl-3-(4-fluoro-3-benzylbenzyloxy)propane] | < 50 | < 50 | < 50 | 80 to 100 | 50 to 79 | 80 to 100 | < 50 | 50 to 79 |  | 
CC(C)(CF)COCc1ccc(F)c(Oc2ccccc2)c1 [Compound 7, 1-Fluoro-2,2-dimethyl-3-(4-fluoro-3-phenoxybenzyloxy)propane] | < 50 | < 50 | 80 to 100 | 80 to 100 | 80 to 100 | 80 to 100 | 80 to 100 | 80 to 100 | 80 to 100 | 
Fc1ccc(COCC2(C(F)F)CCCC2)cc1Oc1ccccc1 [Compound 21, 1-Difluoromethyl-l-(4-fluoro-3-phenoxybenzyloxymethyl)cyclopentane] | < 50 | < 50 | 50 to 79 | 80 to 100 |  | < 50 | < 50 | < 50 | 80 to 100 | 
CC(C)(COCc1cccc(Oc2ccccc2)c1)C(F)F [Compound 2, 1,1-Difluoro-2,2-dimethyl-3-(3-phenoxybenzyloxy)propane] | < 50 | < 50 | < 50 | 80 to 100 | 80 to 100 | 80 to 100 | 80 to 100 | < 50 | 80 to 100 | 
CCC(C)(COCc1cccc(Oc2ccccc2)c1)C(F)F (racemic) [Compound 3, (RS)-1,1-Difluoro-2-ethyl-2-methyl-3(3-phenoxybenzyloxy)propane] | < 50 | < 50 | < 50 | 80 to 100 | < 50 | 50 to 79 | 50 to 79 | 80 to 100 | < 50 | 
CC(C)(COCc1ccc(F)c(Nc2ccccc2)c1)C(F)F [Compound 6, 1,1-Difluoro-2,2-dimethyl-3-(3-phenylamino-4-fluorobenzyloxy)propane] | 80 to 100 | 80 to 100 | 80 to 100 | 80 to 100 |  | < 50 | 50 to 79 | 80 to 100 | 80 to 100 | 
CC(C)(COCc1ccc(F)c(Oc2ccccc2)c1)C(F)F [Compound 1, 1,1-difluoro-2,2-dimethyl-3-(4-fluoro-3-phenoxybenzyloxy)propane] | < 50 | < 50 | 80 to 100 | 80 to 100 | 80 to 100 | 80 to 100 | 80 to 100 | 80 to 100 |  | 80 to 100
CC(C)(CF)COCc1cccc(Oc2ccccc2)c1 [Compound 8, 1-fluoro-2,2-dimethyl-3-(3-phenoxybenzyloxy)propane] | < 50 | < 50 | 50 to 79 | 80 to 100 | < 50 | 50 to 79 | < 50 | 80 to 100 | 80 to 100 | 
CC(C)(COCc1cccc(Oc2ccccc2)n1)C(F)F [Compound 5, 1,1-Difluoro-2,2-dimethyl-3-[(6-phenoxypyrid-2-yl)methyloxy]propane] | 80 to 100 | 50 to 79 | < 50 | 80 to 100 | 80 to 100 | 80 to 100 | 80 to 100 | 80 to 100 |  | 80 to 100
